Legend:
BRISC [1] = target: T1, BRISC (Homo sapiens, UniProt P46736+Q15018+Q9NXR7); assay: Compound library screening and hit validation (IQF diubiquitin, 1 nM BRISC); format: biochemical
T1 construct: made in house; host or cells: Spodoptera frugiperda (Sf9) insect cells, MultiBac
Method: Assays were performed in 384-well black flat-bottom low-flange plates (Corning, 35373) in buffer containing 50 mM HEPES–NaOH pH 7.0, 100 mM NaCl, 1 mg ml^−1 BSA, 1 mM DTT and 0.03% v/v Brij-35. Then, 10 μl of twofold concentrated enzyme stock was dispensed, followed by transfer of 200 nl of compounds (1 mM stock) using a 384-pin tool and a 15-min incubation at room temperature. Then, 10 μl of twofold concentrated substrate stock was added and the reaction was monitored by measuring fluorescence intensity (excitation, 540 nm; emission, 580 nm) after 20-min incubation at room temperature and ~50% of substrate was consumed. Orthogonal assays for verification of H20 and P12 hit compounds using USP2 (100 nM) and trypsin (125 nM) were performed in identical conditions.

BRISC [2] = target: T1, BRISC; assay: BRISC DUB activity assay (IQF K63-linked diubiquitin); format: biochemical; details: for IC50: IQF K63-linked diubiquitin substrate, read-out: IC50, inhibition of BRISC DUB activity; for Mean V0: Fig. 1d
Method: IQF assays were performed in DUB reaction buffer containing 50 mM HEPES–NaOH pH 7.0, 100 mM NaCl, 0.1 mg ml^−1 BSA, 1 mM DTT and 0.03% v/v Brij-35. […] The final concentration of BRISC WT, all BRISC mutants, HsBRISCΔLoop, MmBRISC and DrBRISCΔNΔC was 1 nM. Other enzymes were tested at the following concentrations: 5 nM ARISC (FL), 10 nM CfBRISCΔNΔC, 250 nM AMSH* (ref. [43]), 500 nM USP2 and 1 μM trypsin (Sigma, 9002-07-7). For Michaelis–Menten experiments, 1 nM BRISC with 0–1 μM IQF K63-linked diubiquitin substrate was used. Michaelis–Menten analyses and Lineweaver–Burk plots were calculated using GraphPad Prism (version 9.0).
To assess enzymatic activity, BRISC complexes were diluted to concentrations between 1 nM and 50 nM. […] Then, 20-μl enzyme reactions were carried out in 384-well black flat-bottom low-flange plates (Corning, 35373). DUB activity was measured using IQF K63-linked diubiquitin (LifeSensors, DU6303) at 50 nM. Cleaved diubiquitin was monitored by measuring fluorescence intensity (excitation, 544 nm; emission, 575 nm; dichroic mirror, 560 nm). Fluorescence intensity was measured every minute for 30 min at 30 °C. Fluorescence intensity units were plotted against time to generate a linear reaction progress curve, where the initial velocity (V0) corresponds to the gradient of the curve (typically achieved within 15 min). IC50 values were calculated using the GraphPad Prism (version 9.0) built-in dose–response equation for inhibitor concentration versus response (variable slope).

SMILES | normalised V0, Mean (BRISC [1]; log[compound (μM)] 0.0000) | normalised V0, Mean (BRISC [1]; log[compound (μM)] 1.0000) | normalised V0, Mean (BRISC [1]; log[compound (μM)] 1.6990) | normalised V0, Mean (BRISC [1]; log[compound (μM)] 2.0000) | IC50 (BRISC [2]) | normalised V0, Mean (BRISC [2]; inhibitor 0.0268861 μM) | normalised V0, Mean (BRISC [2]; inhibitor 0.268861 μM) | normalised V0, Mean (BRISC [2]; inhibitor 0.806584 μM) | normalised V0, Mean (BRISC [2]; inhibitor 2.41975 μM) | normalised V0, Mean (BRISC [2]; inhibitor 7.25926 μM) | normalised V0, Mean (BRISC [2]; inhibitor 21.7778 μM) | normalised V0, Mean (BRISC [2]; inhibitor 65.3333 μM) | normalised V0, Mean (BRISC [2]; inhibitor 196 μM) | also measured
O=C(NC1CCNCC1)c1n[nH]cc1NC(=O)c1c(Cl)cccc1Cl [AT7519 (Sellekchem)] | 0.9555 | 1.0109 | 1.0462 | 1.0357 | – | – | – | – | – | – | – | – | – | normalised V0, Mean (BRISC [1]; log[compound (μM)] 0.6990): 1.0013; normalised V0, Mean (BRISC [1]; log[compound (μM)] 1.4771): 0.9903; normalised V0, Mean (BRISC [1]; log[compound (μM)] 2.3010): 0.9736; normalised V0, Mean (BRISC [1]; log[compound (μM)] -1.0000): 1.0118; normalised V0, Mean (BRISC [1]; log[compound (μM)] -1.3010): 0.9395; normalised V0, Mean (BRISC [1]; log[compound (μM)] -4.0000): 1.0025
O=C(NC1CCNCC1)c1n[nH]cc1NC(=O)c1c(Cl)cccc1Cl [AT7519 (Synkinase)] | 0.9360 | 0.9184 | 0.8666 | 0.8425 | – | – | – | – | – | – | – | – | – | normalised V0, Mean (BRISC [1]; log[compound (μM)] 1.3010): 0.8902; normalised V0, Mean (BRISC [1]; log[compound (μM)] -3.0000, normalisation point): 1
O=C(NC1CCNCC1)c1n[nH]cc1NC(=O)c1c(Cl)cccc1Cl [AT7519, N-(4-piperidinyl)-4-(2,6-dichlorobenzoylamino)-1H-pyrazole-3-carboxamide, reference compound] | – | – | – | – | – | – | – | – | – | – | – | – | – | inhibition of BRISC DUB activity (in words) (BRISC [2]; IQF diubiquitin assay): neither inhibited
CN1CCC(NC(=O)c2nn(C(=O)c3c(Cl)cccc3Cl)cc2NC(=O)c2c(Cl)cccc2Cl)CC1 [FX-25-1] | – | – | – | – | 5.2 µM | 1 | 0.8889 | 0.8346 | 0.6971 | 0.4496 | 0.3208 | 0.1744 | 0.1298 | –
C[N+]1(C)CCC(NC(=O)c2nn(C(=O)c3c(Cl)cccc3Cl)cc2NC(=O)c2c(Cl)cccc2Cl)CC1 [FX-25-2] | – | – | – | – | 21 µM | 1 | 1.082 | 1.109 | 1.0044 | 1.002 | 0.6484 | 0.3437 | 0.2841 | –
O=C(NC1CCNCC1)c1nn(C(=O)c2c(Cl)cccc2Cl)cc1NC(=O)c1c(Cl)cccc1Cl [JMS175-2] | – | – | – | – | – | – | – | – | – | – | – | – | – | Mean V0 (BRISC [2]; log[compound (μM)] 0.1938): 0.5385; Mean V0 (BRISC [2]; log[compound (μM)] 0.4949): 0.3840; Mean V0 (BRISC [2]; log[compound (μM)] 0.7959): 0.2986; Mean V0 (BRISC [2]; log[compound (μM)] 1.0969): 0.2014; Mean V0 (BRISC [2]; log[compound (μM)] 1.3979): 0.1684; Mean V0 (BRISC [2]; log[compound (μM)] 1.6990): 0.1492; Mean V0 (BRISC [2]; log[compound (μM)] 2.0000): 0.0500; Mean V0 (BRISC [2]; log[compound (μM)] 2.3010): 0.0048; Mean V0 (BRISC [2]; log[compound (μM)] -0.1072): 0.7414; Mean V0 (BRISC [2]; log[compound (μM)] -1.1072): 0.9992; Mean V0 (BRISC [2]; log[compound (μM)] -2.0000): 1.0000

From article PMC7617869, “Molecular glues that inhibit deubiquitylase activity and inflammatory signaling” (Nature Structural & Molecular Biology, 2025)
